From patent US12297502B2, “Methods and compositions for detecting and diagnosing diseases and conditions” (Stealth BioTherapeutics Inc., priority 2013, dated 2025)

Assays:
[1] = test system: plasma membrane of several mammalian cell types; details: energy-independent manner; Zhao et al., J. Pharmacol Exp Ther., 304:425-432, 2003; cited from earlier work
[2] = test system: heart mitochondrial cardiolipin; experiment: 18:2 cardiolipin in left ventricle heart muscle, dog model of heart failure (shotgun lipidomics); format: in vivo; details: HF dogs, 0.5 mg/kg/day intravenously, 12 weeks, versus normal dogs (NL) and untreated HF dogs (HF-CON)
Description: In this Example, the effect of aromatic-cationic peptide such as D-Arg-2′6′-Dmt-Lys-Phe-NH2 on heart mitochondrial cardiolipin levels in dogs with coronary microembolization-induced heart failure will be investigated.
Heart failure will be induced in dogs via multiple sequential intracoronary microembolizations as described in Sabbah, et al., Am J Physiol. (1991) 260:H1379-84, herein incorporated by reference in its entirety. Half the dogs will be subsequently treated with the mitochondrial peptide; the other half will be treated with drug vehicle and serve as controls. Peptide treatment will be started upon induction of heart failure (HF), defined as left ventricular ejection fraction of approximately 30%. The daily dose of the peptide will be 0.5 mg/kg/day administered intravenously. At the end of the treatment phase (12 weeks) dogs in both the vehicle and treatment groups will be sacrificed and a sample of heart muscle from the left ventricle will be removed, washed with saline, and immediately frozen and stored at −80° C. For cardiolipin analysis, lipids will be extracted from the heart tissue sample with a chloroform/methanol solution (Bligh Dyer extraction). […]

TAZ1 mRNA = TAZ1 mRNA in LV tissue by real-time PCR, dog model of heart failure; format: in vivo; details: HF dogs, 0.5 mg/kg subcutaneous once daily, three months, normalized to GAPDH, printed as e.g. about ... or more
Description: In this Example, the effect of the aromatic-cationic peptide D-Arg-2′6′-Dmt-Lys-Phe-NH2 on cardiolipin remodeling enzymes, MLCL AT1, ALCAT1, and TAZ1 in dogs with coronary microembolization-induced heart failure will be investigated.
Heart failure will be induced in dogs via multiple sequential intracoronary microembolizations as described in Sabbah, et al., Am J Physiol. (1991) 260:H1379-84, herein incorporated by reference in its entirety.
Twelve dogs will be subject to coronary microembolization-induced heart failure (LV ejection fraction ˜30%). Subjects will be randomized into D-Arg-2′6′-Dmt-Lys-Phe-NH2-treated and control groups for a three-month trial. Subjects will receive subcutaneous injections of D-Arg-2′6′-Dmt-Lys-Phe-NH2 (0.5 mg/kg once daily, n=6) or saline (Untreated-HF Control, n=6). RNA will be prepared from LV tissue of all subjects at the end of the treatment phase and from the LV of six normal subject controls. Levels of TAZ1 mRNA will be determined by real-time PCR. Changes in mRNA levels will be expressed as fold reduction using the CT Method, with normalization to a […] (GAPDH) internal control.

[3] = test system: dogs with coronary microembolization-induced heart failure; experiment: LV function and mitochondrial ATP synthesis, dog model of heart failure; format: in vivo; details: HF dogs, chronic treatment
mu-opioid receptor = mu-opioid receptor (Homo sapiens, UniProt P35372); experiment: mu-opioid receptor agonist activity; details: stated in the description, no test described
[4] = cited from earlier work

Chain of mu-opioid receptor (P35372 whole entry, species assumed): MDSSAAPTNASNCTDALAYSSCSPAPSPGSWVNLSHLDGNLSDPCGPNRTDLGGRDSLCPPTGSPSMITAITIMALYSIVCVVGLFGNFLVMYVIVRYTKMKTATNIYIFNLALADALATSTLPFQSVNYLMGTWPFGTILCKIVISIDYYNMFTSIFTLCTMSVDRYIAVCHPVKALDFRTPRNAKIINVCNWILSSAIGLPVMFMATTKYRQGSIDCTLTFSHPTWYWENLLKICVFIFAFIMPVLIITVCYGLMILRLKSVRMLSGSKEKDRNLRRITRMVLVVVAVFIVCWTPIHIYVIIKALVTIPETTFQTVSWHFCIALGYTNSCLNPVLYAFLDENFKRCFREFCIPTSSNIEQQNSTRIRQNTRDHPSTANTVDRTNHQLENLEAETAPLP

2′,6′-Dmt-D-Arg-Phe-Lys-NH2
penetration of cell membranes [1]: readily penetrates

D-Arg-2′6′-Dmt-Lys-Phe-NH2
levels of 18:2 cardiolipin [2]: normalize | attenuation of the decrease of TAZ1 mRNA (TAZ1 mRNA): 1-1.23 fold | LV function [3]: improved | rate of mitochondrial ATP synthesis [3]: improved | mu-opioid receptor agonist activity (mu-opioid receptor): does not have mu-opioid receptor agonist activity

cardiolipin
pK2 ([4]; ionization of both phosphates): > 7.5 | pK1 ([4]; ionization of one phosphate): 3
